Like-named read-outs stand apart in the source and are kept apart here. Positions of bridges follow the written chain, without caps; N, C: chain ends. Non-standard residues stand in square brackets, D forms with d. Residues, ends and D or L forms follow the SMILES beside them. ξ: configuration not given here. Phe(3-CF3) = N[C@@H](Cc1cccc(C(F)(F)F)c1)C(=O)O; Bip = N[C@@H](Cc1ccc(-c2ccccc2)cc1)C(=O)O; Bta = N[C@@H](Cc1csc2ccccc12)C(=O)O; NMeF = CN[C@@H](Cc1ccccc1)C(=O)O; NMehSer = CN[C@@H](CCO)C(=O)O; NMeNle = CCCC[C@H](NC)C(=O)O; NMeA = CN[C@@H](C)C(=O)O; ξC = NC(CS)C(=O)O; Sar = CNCC(=O)O
How the values were obtained:
Human PD-L1/PD-1 = molecular target: T1, Human PD-L1/PD-1 (Homo sapiens, UniProt Q9NZQ7); test: HTRF PD-1-Ig/PD-L1-His binding assay (human PD-L1); settings: cluster symbol; read-out: HTRF IC50 cluster
T1 construct: made in house; host or cells: HEK293T
T1 sequence (Q9NZQ7 with tags, fused parts or gaps): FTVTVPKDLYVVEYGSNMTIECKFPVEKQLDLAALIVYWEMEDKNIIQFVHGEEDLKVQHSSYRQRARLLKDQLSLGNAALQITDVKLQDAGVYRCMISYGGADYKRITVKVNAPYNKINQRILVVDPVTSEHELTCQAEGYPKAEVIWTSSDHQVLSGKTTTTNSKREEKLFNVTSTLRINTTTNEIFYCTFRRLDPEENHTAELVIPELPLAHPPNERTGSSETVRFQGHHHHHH
Procedure, shortened: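 Steps: truncated PD-1-Ig and PD-L1-His fusions are incubated in dPBS containing 0.1% (w/v) BSA and 0.05% (v/v) Tween-20. Detection antibodies are then added (Eu cryptate anti-Ig at 1 nM final, APC anti-His at 20 nM final), and time-resolved FRET is measured.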

[1] = molecular target: T2, LK35.2-hPD-L1 cells / PE-labeled PD-1-Ig (Homo sapiens, UniProt Q9NZQ7); test: LK35.2-hPD-L1 cell binding high-content screening assay; format: cell-based; settings: cluster symbol, read-out: CBA IC50 cluster
T2 construct: expressed in transfected cells; host or cells: LK35.2 mouse B cell line
T2 sequence (Q9NZQ7 19-290): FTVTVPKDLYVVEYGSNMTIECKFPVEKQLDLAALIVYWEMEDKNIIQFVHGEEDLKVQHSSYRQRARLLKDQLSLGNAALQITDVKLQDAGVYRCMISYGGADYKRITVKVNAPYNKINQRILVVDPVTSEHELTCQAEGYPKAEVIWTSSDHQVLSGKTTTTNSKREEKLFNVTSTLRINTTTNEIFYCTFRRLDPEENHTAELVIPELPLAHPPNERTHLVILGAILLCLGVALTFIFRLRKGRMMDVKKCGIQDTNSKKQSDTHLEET
Procedure, shortened: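 Mouse LK35.2 B cells stably overexpressing human PD-L1 were cultured overnight in RPMI with 10% FCS, then given compound and PE-labeled human PD-1-Ig (1 nM final) for 1 h at 37 °C. After three dPBS washes, bound fluorescence was quantified by high-content imaging.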

[2] = cell line of CBA not given (LK35.2-hPD-L1 or 293T-hPD-L1)
[3] = cell binding assay, cell line not given

Structure (SMILES)	IC50 (Human PD-L1/PD-1) [nM]	IC50 [1, 2] [nM]	IC50 [1, 3] [nM]
CCCC[C@H]1C(=O)N(C)[C@@H](CCCC)C(=O)N[C@@H](CCCNC(=N)N)C(=O)N[C@H](C(=O)NCC(N)=O)CSCC(=O)N[C@@H](Cc2ccccc2)C(=O)N(C)[C@@H](C)C(=O)N[C@@H](CC(N)=O)C(=O)N2CCC[C@H]2C(=O)N[C@@H](Cc2cnc[nH]2)C(=O)N[C@@H](CC(C)C)C(=O)N(C)CC(=O)N[C@@H](Cc2cccc(C(F)(F)F)c2)C(=O)N[C@@H](CO)C(=O)N[C@@H](Cc2c[nH]c3ccccc23)C(=O)N1C [Example 1018] ({CH2CO}-F[NMeA]NPHL[Sar][Phe(3-CF3)]SW[NMeNle][NMeNle]RCG-NH2; thioether N-14)	> 30.5	> 74.3	–
CCCC[C@H]1C(=O)N[C@@H](CCCNC(=N)N)C(=O)NC(C(=O)NCC(N)=O)CSCC(=O)N[C@@H](Cc2ccc(O)cc2)C(=O)N(C)[C@@H](C)C(=O)N[C@@H](CC(=O)O)C(=O)N2CCC[C@H]2C(=O)N[C@@H](Cc2cnc[nH]2)C(=O)N[C@@H](CC(C)C)C(=O)N2CCC[C@H]2C(=O)N[C@@H](Cc2c[nH]c3ccccc23)C(=O)N[C@@H](CO)C(=O)N[C@@H](Cc2csc3ccccc23)C(=O)N(C)[C@@H](CCOC)C(=O)N1C (some centres unmarked) [Example 9009] ({CH2CO}-Y[NMeA]DPHLPWS[Bta][NMehSer](Me)[NMeNle]R[ξC]G-NH2; thioether N-14)	6.76 to 30.3	–	4.78 to 72.9
CCCC[C@H]1C(=O)N(C)[C@@H](C)C(=O)N[C@@H](CCCNC(=N)N)C(=O)NC(C(=O)NCC(N)=O)CSCC(=O)N[C@@H](Cc2ccc(O)cc2)C(=O)N(C)[C@@H](C)C(=O)N[C@@H](CC(N)=O)C(=O)N2CCC[C@H]2C(=O)N[C@@H](CO)C(=O)N[C@@H](CC(C)C)C(=O)N2CCC[C@H]2C(=O)N[C@@H](Cc2c[nH]c3ccccc23)C(=O)N[C@@H](CO)C(=O)N[C@@H](Cc2csc3ccccc23)C(=O)N1C (some centres unmarked) [Example 9111] ({CH2CO}-Y[NMeA]NPSLPWS[Bta][NMeNle][NMeA]R[ξC]G-NH2; thioether N-14)	0.385 to 6.74	–	4.78 to 72.9
CCCC[C@H]1C(=O)N(C)[C@@H](CCCC)C(=O)N[C@@H](CCCNC(=N)N)C(=O)N[C@H](C(=O)NCC(N)=O)CSCC(=O)N[C@@H](Cc2ccccc2)C(=O)N(C)[C@@H](C)C(=O)N[C@@H](CC(N)=O)C(=O)N2CCC[C@H]2C(=O)N[C@@H](Cc2cnc[nH]2)C(=O)N[C@@H](CC(C)C)C(=O)NC(C)(C)C(=O)N[C@@H](Cc2c[nH]c3ccccc23)C(=O)N[C@@H](CO)C(=O)N[C@@H](Cc2c[nH]c3ccccc23)C(=O)N1C [Example 1110]	> 30.5	> 74.3	–
CCCC[C@H]1C(=O)N(C)CC(=O)N[C@@H](CC(=O)O)C(=O)N[C@@H](CC2CCCCC2)C(=O)N(C)[C@@H](Cc2ccccc2)C(=O)N[C@@H](Cc2ccc(O)cc2)C(=O)N(C)CC(=O)N[C@@H](Cc2c[nH]c3ccccc23)C(=O)N[C@@H](Cc2ccc(O)cc2)C(=O)N[C@@H](CC(C)C)C(=O)N[C@H](C(=O)NCC(N)=O)CSCC(=O)N[C@@H](Cc2ccccc2)C(=O)N(C)[C@@H](Cc2ccccc2)C(=O)N1C [Example 3159] (HELM PEPTIDE1{[O=C(C[*:3])[*:2]].F.[meF].[CCCC[C@@H](C(=O)[*:2])N(C)[*:1]].[Sar].D.[Cha].[meF].Y.[Sar].W.Y.L.C.G.[am]}$PEPTIDE1,PEPTIDE1,1:R3-14:R3$$$V2.0)	> 30.5	> 74.3	–
CCCC[C@H]1C(=O)N(C)CC(=O)N[C@@H](CC(=O)O)C(=O)N[C@@H](C(C)C)C(=O)N(C)[C@@H](Cc2ccccc2)C(=O)N[C@@H](Cc2ccc(O)cc2)C(=O)N(C)CC(=O)N[C@@H](Cc2c[nH]c3ccccc23)C(=O)N[C@@H](Cc2ccc(-c3ccccc3)cc2)C(=O)N[C@@H](CC(C)C)C(=O)N[C@H](C(=O)NCC(N)=O)CSCC(=O)N[C@@H](Cc2ccccc2)C(=O)N(C)[C@@H](Cc2ccccc2)C(=O)N1C [Example 3547] ({CH2CO}-F[NMeF][NMeNle][Sar]DV[NMeF]Y[Sar]W[Bip]LCG-NH2; thioether N-13)	> 30.5	–	> 74.3
CCCC[C@H]1C(=O)N(C)[C@@H](CCCC)C(=O)N[C@@H](CCCNC(=N)N)C(=O)N[C@H](C(=O)NCC(N)=O)CSCC(=O)N[C@@H](Cc2cccc(C(F)(F)F)c2)C(=O)N(C)[C@@H](C)C(=O)N[C@@H](CC(N)=O)C(=O)N2CCC[C@H]2C(=O)N[C@@H](Cc2cnc[nH]2)C(=O)N[C@@H](CC(C)C)C(=O)N(C)CC(=O)N[C@@H](Cc2c[nH]c3ccccc23)C(=O)N[C@@H](CO)C(=O)N[C@@H](Cc2c[nH]c3ccccc23)C(=O)N1C [Example 1107] ({CH2CO}-[Phe(3-CF3)][NMeA]NPHL[Sar]WSW[NMeNle][NMeNle]RCG-NH2; thioether N-14)	> 30.5	> 74.3	–
